Our source for the AC50 values is patent US20230365592A1 (Agios Pharmaceuticals, Inc., priority 2022, published 2023).

Broadly, the AC50 is the concentration giving half of the maximal activity seen.

Bounds are passed on as bounds.

The target in the first assay is T1, human PAH with the R408W mutation (Homo sapiens, UniProt P00439, R408W).
T1 construct: expressed in transfected cells
T1 sequence (P00439 1-452 R408W): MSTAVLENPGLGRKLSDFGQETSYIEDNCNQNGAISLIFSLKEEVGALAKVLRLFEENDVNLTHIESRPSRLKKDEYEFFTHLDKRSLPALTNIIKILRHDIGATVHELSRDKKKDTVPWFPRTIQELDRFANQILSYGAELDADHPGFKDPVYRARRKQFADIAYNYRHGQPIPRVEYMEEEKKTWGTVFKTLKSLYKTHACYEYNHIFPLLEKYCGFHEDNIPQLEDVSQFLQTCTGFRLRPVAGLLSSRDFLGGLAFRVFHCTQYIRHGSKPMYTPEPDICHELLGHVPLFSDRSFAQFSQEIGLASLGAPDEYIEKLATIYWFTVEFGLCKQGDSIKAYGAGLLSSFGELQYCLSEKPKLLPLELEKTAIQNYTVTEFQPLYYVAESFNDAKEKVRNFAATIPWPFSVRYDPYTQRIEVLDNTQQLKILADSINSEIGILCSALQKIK
As to the kind of experiment: Cell Based Phenylalanine Flux Assay.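 Further: after compound treatment, cells received sepiapterin plus isotope-labelled Phenylalanine for 4 hours, then labelled Tyrosine in the medium was quantified, 10-point 2-fold dilution series run in duplicate.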 The conditions noted are these: A375 cells expressing R408W PAH; 24 hrs with compound, then 20 µM sepiapterin and 800 µM 13C9,15N-Phenylalanine for 4 hours; 13C-Tyrosine by LC-MS; average where tested multiple times; read-out: AC50.
For the compound `O=C(c1nnc(-c2ncccn2)o1)N1CCc2[nH]cnc2[C@H]1c1cc2c(C3CC3)cccn2n1` (single isomer, unassigned), the concentration at half-maximal activity (AC50) was above 5000 nM. On the same count and under the same terms, the same measure for `Cc1cccn2nc(C3c4nc[nH]c4CCN3C(=O)c3ccn(-c4ccccn4)n3)cc12` (centres unmarked): above 5000 nM; for `Cc1cccn2nc(C3c4nc[nH]c4CCN3C(=O)c3cnc(-c4ncccn4)o3)cc12` (centres unmarked): 1000 to 5000 nM; for `Cc1ccc2c(C(=O)N3CCc4[nH]cnc4C3c3cc4cccc(C(F)F)n4n3)cnn2c1` (centres unmarked): 1000 to 5000 nM. Consider `CN(C)Cc1ccc2c(C(=O)N3CCc4[nH]cnc4C3c3cc4c(C(F)F)cccn4n3)cnn2c1` (centres unmarked), for which the concentration at half-maximal activity (AC50) was in the range of 1000 to 5000 nM.

Turning to `COCc1ccc2c(C(=O)N3CCc4[nH]cnc4C3c3cc4c(OC)cccn4n3)cnn2c1` (centres unmarked), the half-maximal activity concentration (AC50) lay in the range of 1000 to 5000 nM.

Staying with this assay, now noted: A375 cells expressing human PAH R408W; 24 hrs compound incubation; 13C-Tyrosine by LC-MS; average where tested multiple times; read-out: AC50.
Regarding `Cc1cccn2nc([C@@H]3c4nc[nH]c4CCN3C(=O)[C@H]3CC3(F)F)cc12` [Example 2027, ((R)-2,2-difluorocyclopropyl)((S)-4-(4-methylpyrazolo[1,5-a]pyridin-2-yl)-1,4,6,7-tetrahydro-5H-imidazo[4,5-c]pyridin-5-yl)methanone], the AC50 is 500 to 1000 nM. `CC(C)(C)c1nnc(N2CCc3[nH]cnc3[C@H]2c2cc3c(C(F)F)cccn3n2)o1` [Example 1825, (S)-2-(tert-butyl)-5-(4-(4-(difluoromethyl)pyrazolo[1,5-a]pyridin-2-yl)-6,7-dihydro-1H-imidazo[4,5-c]pyridin-5(4H)-yl)-1,3,4-oxadiazole]: the half-maximal activity concentration (AC50) is 500 to 1000 nM. Consider `CC(F)(F)c1nnc(N2CCc3[nH]cnc3[C@H]2c2cc3c(C(F)F)cccn3n2)o1` [Example 2203, (S)-2-(1,1-difluoroethyl)-5-(4-(4-(difluoromethyl)pyrazolo[1,5-a]pyridin-2-yl)-1,4,6,7-tetrahydro-5H-imidazo[4,5-c]pyridin-5-yl)-1,3,4-oxadiazole], for which the half-maximal activity concentration (AC50) is below 500 nM. `CC(C)c1cccn2nc([C@@H]3c4nc[nH]c4CCN3C(=O)c3nnc(-c4ccccn4)o3)cc12` [Example 1905, (S)-(4-(4-isopropylpyrazolo[1,5-a]pyridin-2-yl)-1,4,6,7-tetrahydro-5H-imidazo[4,5-c]pyridin-5-yl)(5-(pyridin-2-yl)-1,3,4-oxadiazol-2-yl)methanone]: the AC50 was below 500 nM. As for `Cc1cccn2nc([C@H]3c4nc[nH]c4CCN3C(=O)c3nnc(-c4ccn(C)n4)s3)cc12` [Example 1999, (R)-(5-(1-methyl-1H-pyrazol-3-yl)-1,3,4-thiadiazol-2-yl)(4-(4-methylpyrazolo[1,5-a]pyridin-2-yl)-1,4,6,7-tetrahydro-5H-imidazo[4,5-c]pyridin-5-yl)methanone], the AC50 was above 5000 nM. Still for that read-out and setting: the value for `O=C(c1nnc(C2CCC2)o1)N1CCc2[nH]cnc2[C@@H]1c1cc2cccc(C(F)(F)F)n2n1` [Example 2431, (R)-(5-cyclobutyl-1,3,4-oxadiazol-2-yl)(4-(7-(trifluoromethyl)pyrazolo[1,5-a]pyridin-2-yl)-6,7-dihydro-1H-imidazo[4,5-c]pyridin-5(4H)-yl)methanone] was 1000 to 5000 nM; that for `Fc1cccc(F)c1-c1nnc(N2CCc3[nH]cnc3[C@@H]2c2cc3c(C(F)F)cccn3n2)o1` [Example 1862, (R)-2-(4-(4-(difluoromethyl)pyrazolo[1,5-a]pyridin-2-yl)-1,4,6,7-tetrahydro-5H-imidazo[4,5-c]pyridin-5-yl)-5-(2,6-difluorophenyl)-1,3,4-oxadiazole] was above 5000 nM; that for `O=C(c1cnc(-c2ccccn2)o1)N1CCc2[nH]cnc2[C@H]1c1cc2c(F)cccn2n1` [Example 2032, (S)-(4-(4-fluoropyrazolo[1,5-a]pyridin-2-yl)-1,4,6,7-tetrahydro-5H-imidazo[4,5-c]pyridin-5-yl)(2-(pyridin-2-yl)oxazol-5-yl)methanone] was below 500 nM.

The assay is the same for the next values; noted with them: A375 cells expressing human R408W PAH; 24 hrs compound incubation; 13C-Tyrosine by LC-MS; average where tested multiple times; read-out: AC50.
For the compound `CC(C)(O)c1nc(Br)c(C(=O)N2CCc3[nH]cnc3[C@@H]2c2cc3c(Cl)cccn3n2)o1` [Example 723, (R)-(4-bromo-2-(2-hydroxypropan-2-yl)oxazol-5-yl)(4-(4-chloropyrazolo[1,5-a]pyridin-2-yl)-6,7-dihydro-1H-imidazo[4,5-c]pyridin-5(4H)-yl)methanone], the AC50 lay in the range of 1000 to 5000 nM. Consider `CC(C)(O)c1nc(C(F)F)c(C(=O)N2CCc3[nH]cnc3[C@H]2c2cc3cccc(C(F)(F)F)n3n2)o1` [Example 1156, (S)-(4-(difluoromethyl)-2-(2-hydroxypropan-2-yl)oxazol-5-yl)(4-(7-(trifluoromethyl)pyrazolo[1,5-a]pyridin-2-yl)-6,7-dihydro-1H-imidazo[4,5-c]pyridin-5(4H)-yl)methanone], for which the AC50 is below 500 nM. As to `Cn1ccc(-c2nnc(C(=O)N3CCc4[nH]cnc4[C@@H]3c3cc4cccc(F)n4n3)o2)n1` [Example 1457, (R)-(4-(7-fluoropyrazolo[1,5-a]pyridin-2-yl)-6,7-dihydro-1H-imidazo[4,5-c]pyridin-5(4H)-yl)(5-(1-methyl-1H-pyrazol-3-yl)-1,3,4-oxadiazol-2-yl)methanone], the AC50 was 1000 to 5000 nM. Same read-out and setting: the value for `COc1cccn2nc([C@H]3c4nc[nH]c4CCN3C(=O)c3cc(C)nn3C)cc12` [Example 919, (R)-(1,3-dimethyl-1H-pyrazol-5-yl)(4-(4-methoxypyrazolo[1,5-a]pyridin-2-yl)-6,7-dihydro-1H-imidazo[4,5-c]pyridin-5(4H)-yl)methanone] was above 5000 nM; that for `Cc1nc(C(C)(C)F)oc1C(=O)N1CCc2[nH]cnc2[C@@H]1c1cc2ccccn2n1` [Example 1251, (R)-(2-(2-fluoropropan-2-yl)-4-methyloxazol-5-yl)(4-(pyrazolo[1,5-a]pyridin-2-yl)-6,7-dihydro-1H-imidazo[4,5-c]pyridin-5(4H)-yl)methanone] was 500 to 1000 nM. On the same count and under the same terms, the value for `O=C(c1nnc(-c2ccn(C(F)F)n2)o1)N1CCc2[nH]cnc2[C@H]1c1cc2c(OC(F)(F)F)cccn2n1` [Example 1704, (S)-(5-(1-(difluoromethyl)-1H-pyrazol-3-yl)-1,3,4-oxadiazol-2-yl)(4-(4-(trifluoromethoxy)pyrazolo[1,5-a]pyridin-2-yl)-6,7-dihydro-1H-imidazo[4,5-c]pyridin-5(4H)-yl)methanone] was below 500 nM.

Regarding `Cc1cccn2nc([C@@H]3c4nc[nH]c4CCN3C(=O)c3nnc(-c4cnn(C)c4)o3)cc12` [Example 748, (S)-(5-(1-methyl-1H-pyrazol-4-yl)-1,3,4-oxadiazol-2-yl)(4-(4-methylpyrazolo[1,5-a]pyridin-2-yl)-6,7-dihydro-1H-imidazo[4,5-c]pyridin-5(4H)-yl)methanone], the AC50 is below 500 nM.

In the case of `Cc1cccn2nc([C@H]3c4nc[nH]c4CCN3C(=O)c3nnc(N4CCC(F)CC4)o3)cc12` [Example 1013, (R)-(5-(4-fluoropiperidin-1-yl)-1,3,4-oxadiazol-2-yl)(4-(4-methylpyrazolo[1,5-a]pyridin-2-yl)-6,7-dihydro-1H-imidazo[4,5-c]pyridin-5(4H)-yl)methanone], the half-maximal activity concentration (AC50) was above 5000 nM. In the case of `Cn1cncc1-c1nc(C(F)F)c(C(=O)N2CCc3[nH]cnc3[C@@H]2c2cc3ccccn3n2)o1` [Example 868, (R)-(4-(difluoromethyl)-2-(1-methyl-1H-imidazol-5-yl)oxazol-5-yl)(4-(pyrazolo[1,5-a]pyridin-2-yl)-6,7-dihydro-1H-imidazo[4,5-c]pyridin-5(4H)-yl)methanone], the half-maximal activity concentration (AC50) is above 5000 nM.
